# Entries after “also recorded” stand apart in the source; their conditions may differ.
# Assays:
# [1] = system: Colo320 DM ecDNA+ and Colo320 HSR ecDNA− cells; assay: Sensitivity of Colo320 DM and Colo320 HSR to CHK1 inhibitors, seven days (FIG. 13); type: cell-based; conditions: CHK2 or ATM inhibition
# Method: The sensitivity of an ecDNA+ cell line (Colo320 DM) compared with an ecDNA− cell line (Colo320 HSR) to four structurally distinct CHK1 inhibitors was determined.
# [2] = system: Colo320 DM (ecDNA+) and Colo320 HSR (ecDNA−) cells; assay: MTS cell proliferation assay, 7 days, Colo320 ecDNA+ vs ecDNA−; type: cell-based
# Method: (§1) Sensitivity of an ecDNA+ (Colo320 ecDNA+) and an ecDNA− (Colo320 ecDNA−) cell line models to WEE1 inhibition was determined by treating each with increasing concentrations of either adavosertib or PD0166285 over a 7 day period. Cell proliferation was determined using a MTS assay (FIG. 27, top panels), while viability was determined using CellTiter-glo assay (FIG. 27 bottom panels).
# (§2) Cell proliferation was determined using a MTS assay (FIG. 36, top panels), while viability was determined using CellTiter-glo assay (FIG. 36, bottom panels).
# HeLa cells [3] = assay: HeLa cell confluence by high-content microscopy over three weeks, with or without 100 nM methotrexate; type: cell-based; conditions: for cell growth (cell confluence), agent alone / development of methotrexate resistance: three weeks; for cell growth (cell confluence), agent alone: 10 nM GDC-0575, 100 nM methotrexate, 300 nM-10 μM AZD6738; for development of methotrexate resistance: in combination with 100 nM methotrexate
# Method: Cell confluence was measured via high-content microscopy over the time course.
# HeLa cells were treated with a WEE1 inhibitor, 0.01-0.3 μM adavosertib alone, with 1 nM-100 nM PD0166285, with 100 nM methotrexate alone, or with a combination of 0.01-0.3 μM adavosertib and 100 nM methotrexate or a combination of 1 nM-100 nM PD0166285 and 100 nM methotrexate over the course of three weeks. Cell confluence was measured via high-content microscopy over the time course.
# HeLa cells were treated with a PARG inhibitor, 3-100 μM PD00017273 with (FIG. 35 top panel) or without (FIG. 35 bottom panel) 100 nM methotrexate over the course of 3 weeks. Cell confluence was measured via high-content microscopy over the time course.
# Cell confluence was measured via high-content microscopy over the time course. […] However.
# [4] = system: Colo320 ecDNA+ and Colo320 ecDNA− cells; assay: CellTiter-glo viability assay, 7 days, Colo320 ecDNA+ vs ecDNA−; type: cell-based
# Method: as §1, §2
# [5] = system: CT26WT E3 G12C KRAS mutant tumor cells; assay: Treatment of CT26WT E3 G12C KRAS mutant tumors in mice, tumor growth (Examples 3 and 4); type: in vivo; conditions: adagrasib 50 mg/kg orally once per day
# Excerpt: (§3) Mice were implanted with CT26WT E3 G12C KRAS mutant tumor cells.
# as §3
# parental CT26 WT E3 line = assay: Culture of parental line with adagrasib; type: cell-based
# HeLa cells [6] = assay: HeLa colony formation assay, resistance formation to methotrexate (FIG. 32); type: cell-based; conditions: 10000 cells plated with methotrexate for 21 days, IC50, 1/3 IC50, or 1/9 IC50
# [7] = system: KRASi resistant tumor cells cultured ex vivo; assay: KRASi resistant tumor cells implanted into NOD-SCID mice, tumor growth; type: in vivo; conditions: adagrasib 50 mg/kg orally once per day
# Excerpt: KRASi resistant tumor cells cultured ex vivo from Example 5 were implanted into NOD-SCID mice. […] Mice were implanted with the KRAS-resistant tumor cells as above.
# [8] = system: panel of ecDNA+ cell lines; assay: Two-week soft-agar 3D colony formation assay, adavosertib (FIG. 31); type: cell-based; conditions: five-point dose range, two weeks
# Method: FIG. 31 illustrates sensitivity of ecDNA+ cells to inhibition of WEE1 using adavosertib in a 3-dimensional colony formation assay conducted in soft-agar. A panel of ecDNA+ cell lines were interrogated in a two-week soft agar drug sensitivity assay. All lines were treated with a five-point dose range of adavosertib for two weeks and stained with crystal violet to quantify individual colony counts.
# [9] = system: Colo320 ecDNA+ (COLO320 DM) and Colo320 ecDNA− (COLO320 HSR) cells; assay: Sensitivity of Colo320 ecDNA+ and ecDNA− cells to RNR inhibitors (FIG. 12); type: cell-based; conditions: for induction of replication stress marker, phosphorylation at serine positions 317 and 345 of CHK1: Colo320 DM and HSR cells
# SNU16 cells = assay: Long-term cell growth / resistance development in SNU16 cells; type: cell-based, human; conditions: for cell growth / development of primary resistance: FIG. 25, 12 weeks, 1 uM infigratinib, 1 uM erlotinib, 10 nM gemcitabine; for cell growth / resistance formation: 9 weeks
# Method: Each treatment arm was terminated once the cell number reached 5×10^6.
# SNU16 cells were subdivided into five groups and each group of 1×10^6 cells was subjected to treatment with 1 μM infigratinib, 1 μM erlotinib, 1 μM infigratinib and 1 μM erlotinib, 0.1 μM adavosertib and cell growth was recorded over 9 weeks.
# SNU16 cells were subdivided into five groups and each group of 1×10^6 cells was subjected to treatment with infigratinib, erlotinib, PD00017273, infigratinib and erlotinib, or infigratinib and PD00017273 and cell growth was recorded over 9 weeks.
# SNU16 (CRL-5974) cell line was purchased from ATCC. SNU16 cells were grown in RPMI 1640 medium (Fisher Scientific) with 10% FBS and 100 U/ml penicillin/streptomycin (Fisher Scientific). For the resistance experiments, SNU16 cells were plated at 2 million per T75 flask and were treated with either 1 μM infigratinib (Selleck Chemicals), 1 μM erlotinib (Selleck Chemicals), 10 nM gemcitabine (Sigma Aldrich), or a combination. The media was changed and fresh drug was added at least once per week. The cells were counted over the span of several weeks to measure cell growth.
# [10] = system: infigratinib-resistant SNU16 cells; assay: Secondary resistance, cell growth of infigratinib-resistant SNU16 cells over 5 weeks; type: cell-based, human; conditions: FIG. 26, 1 uM infigratinib, 1 uM erlotinib, 10 nM gemcitabine
# Method: The infigratinib-resistant SNU16 cells (generated as shown in FIG. 25) were subdivided into six groups and each group of 1×10^6 cells was subjected to treatment with 1 uM infigratinib, 1 uM erlotinib, 10 nM gemcitabine, or 1 uM erlotinib+10 nM gemcitabine and the cell growth was recorded over 5 weeks. Each treatment arm was terminated once the cell number reached 5×10^6.
# KRAS amplified ecDNA = assay: KRAS ecDNA by FISH in metaphase spreads from ex vivo cultures of treated tumors; design: species or system murine
# Method: ecDNA were measured in metaphase spreads prepared from ex vivo cultures established from tumors taken from the mice on day of sacrifice. ecDNA counts were determined using FISH for murine KRAS.
# Metaphase spreads were prepared from metaphase arrested and fixed ex vivo cultures established from tumors taken from mice in treatment groups and ecDNA was visualized by FISH for murine KRAS.
# [11] = system: ecDNA+ (Colo320 DM) and ecDNA− (Colo320 HSR) cells; assay: DNA fiber analysis, replication fork speed; type: cell-based; conditions: 16 hr treatment
# Method: FIGS. 42A-42B show intrinsic replication fork dysfunction in ecDNA(+) cancer cells is further compromised by RNR inhibition relative to […]. […] The two cell models were then pulse-labeled with the thymidine analogues chlorodeoxyuridine (CldU) and iododeoxyuridine (IdU) for 30 min each (FIG. 42A). Cells were lysed, DNA fibers spread out and immunostained using specific antibodies against CldU and IdU. […] A difference of -0.13 kb/min in replication fork speed between ecDNA+ and […] treated with RNRi was observed. Statistical significance was calculated using nonparametric Kolmogorov-Smirnov test. FIGS. 43A-43B show intrinsic replication fork dysfunction in ecDNA+ cancer cells is further compromised by CHK1 inhibition relative to […]. […] The two cell models were then pulse-labeled with the thymidine analogues chlorodeoxyuridine (CldU) and iododeoxyuridine (IdU) for 30 min each (FIG. 43A). Cells were lysed, DNA fibers spread out and immunostained using specific antibodies against CldU and IdU.
# [12] = system: ecDNA+ cell lines (SNU16, Colo320 DM, H716, and H2170) and ecDNA− cell lines (DLD1, Colo320 HSR, Lovo, and SW48); assay: Two-week soft-agar 3D colony formation assay, gemcitabine (FIG. 5); type: cell-based; conditions: five-point dose range, two weeks, colony counts
# Method: A panel of ecDNA+ and ecDNA− cell lines were interrogated in a two-week soft-agar drug sensitivity assay. All lines were treated with a five-point dose range of gemcitabine for two weeks and stained with crystal violet (FIG. 5, top panel) to quantify individual colony counts by ImageJ analysis (plotted in FIG. 5, bottom panel).
compound,measurement,setting,value
CN(C)CCCOc1ccc(-c2ccc3ncc4c(c3c2)n(C2CCOCC2)c(=O)n4C)cn1 [AZD0156],differential sensitivity between the two lines,[1],"neither inhibiting CHK2 with CCT241533 nor inhibiting DDR target, ATM, with AZD0156 revealed any differential sensitivity"
C[C@@H]1COCCN1c1cc(C2([S@](C)(=N)=O)CC2)nc(-c2cc[nH]c3nccc2-3)n1 [AZD6738],"sensitivity of Colo320 ecDNA+ compared with ecDNA− cells, proliferation changes",[2],enhanced sensitivity
same,"cell growth (cell confluence), agent alone",HeLa cells [3],did not affect HeLa cell growth
same,synthetic lethality with methotrexate,"HeLa cells [3]; with 100 nM methotrexate, 3 weeks",synthetic lethality
same,"sensitivity of Colo320 ecDNA+ compared with ecDNA− cells, viability changes",[4],enhanced sensitivity
COc1cc2nc(-c3cc(F)ccc3O)nc(N[C@@H]3CNC[C@H]3C(C)(C)O)c2cc1OC [CCT241533],differential sensitivity between the two lines,[1],"neither inhibiting CHK2 with CCT241533 nor inhibiting DDR target, ATM, with AZD0156 revealed any differential sensitivity"
CCN(CC)CCOc1ccc(Nc2ncc3cc(-c4c(Cl)cccc4Cl)c(=O)n(C)c3n2)cc1 [PD0166285],"sensitivity of Colo320 ecDNA+ compared with ecDNA− cells, proliferation changes",[2],enhanced sensitivity
same,development of methotrexate resistance,HeLa cells [3],abrogation of methotrexate resistance
same,"sensitivity of Colo320 ecDNA+ compared with ecDNA− cells, viability changes",[4],enhanced sensitivity
C=C(F)C(=O)N1CCN(c2nc(OC[C@@H]3CCCN3C)nc3c2CCN(c2cccc4cccc(Cl)c24)C3)C[C@@H]1CC#N [adagrasib],day by which tumors began to exhibit resistance and tumor growth resumed,[5]; Example 3,≤ 14 days
same,delay in tumor growth before tumors developed resistance,[5]; Example 4,about 2 weeks
same,sensitivity to the drug in culture,parental CT26 WT E3 line,remained sensitive to the drug
C=CCn1c(=O)c2cnc(Nc3ccc(N4CCN(C)CC4)cc3)nc2n1-c1cccc(C(C)(C)O)n1 [adavosertib],resistance formation to methotrexate,HeLa cells [6],abrogation of resistance formation to methotrexate
same,"sensitivity of Colo320 ecDNA+ compared with ecDNA− cells, proliferation changes",[2],enhanced sensitivity
same,tumor growth,"[7]; from about 180 mm^3, adavosertib 60 mg/kg orally once per day, PD0166285 0.3 mg/kg ip once per day",inhibited tumor growth
same,development of methotrexate resistance,HeLa cells [3],prevented development of methotrexate resistance
same,"sensitivity, colony counts",[8],demonstrated sensitivity
same,"sensitivity of Colo320 ecDNA+ compared with ecDNA− cells, viability changes",[4],enhanced sensitivity
"Cc1ccc(F)c([C@@H](C)[C@H](NS(=O)(=O)c2ccc(Cl)cc2C(N)=O)c2n[nH]c(=O)o2)c1C [compound 1, 5-chloro-2-(n-((1S,2R)-2-(6-fluoro-2,3-dimethylphenyl)-1-(5-oxo-4,5-dihydro-1,3,4-oxadiazol-2-yl)propyl)sulfamoyl)benzamide]","induction of replication stress marker, phosphorylation at serine positions 317 and 345 of CHK1",[9],induced the replication stress marker
C#Cc1cccc(Nc2ncnc3cc(OCCOC)c(OCCOC)cc23)c1 [erlotinib],cell growth / development of primary resistance,SNU16 cells,no effect on cell growth on its own
same,cell growth / resistance formation,"SNU16 cells; FIG. 30, 1 μM infigratinib, 1 μM erlotinib, 0.1 μM adavosertib",no effect on cell growth on its own
same,cell growth / resistance formation,SNU16 cells; FIG. 34,little to no effect on cell growth
same,cell growth / development of secondary resistance,[10],"delayed cell growth for the first two weeks, but the cells continued to grow quickly after that; also recorded: initially sensitive to EGFR inhibitor erlotinib but develop secondary resistance within three weeks"
Nc1ccn([C@@H]2O[C@H](CO)[C@@H](O)C2(F)F)c(=O)n1 [gemcitabine],KRAS ecDNA level,"KRAS amplified ecDNA; Example 3, tumors at day of sacrifice (D21 or D16)",no KRAS amplified ecDNA was seen
same,ecDNA copy number per metaphase spread where ecDNA present,KRAS amplified ecDNA; Example 4,1-3 per metaphase spread
same,metaphase spreads with little to no ecDNA,"KRAS amplified ecDNA; Example 4, treatment group 3",78/95
same,difference in replication fork speed between treated ecDNA+ and ecDNA− cells,[11],−0.13 kb/min
same,tumor growth,"[7]; from 290 mm^3, gemcitabine 10 mg/kg ip every other day",inhibited tumor growth
same,fold enhanced sensitivity of ecDNA+ cell lines compared with ecDNA− cell lines,[12],5-10 fold
same,cell growth / development of primary resistance,SNU16 cells,"delayed cell growth for the first two weeks, but the cells continued to grow quickly after that"
same,tumor growth,"[5]; Example 3, from average volume 350 mm^3, gemcitabine 10 mg/kg ip every other day or 120 mg/kg ip once per week",only KRASi (adagrasib) resulted in a significant delay in tumor growth
same,tumor growth,"[5]; Example 4, gemcitabine 10 or 20 mg/kg ip every other day",substantial tumor growth
same,cell growth / development of secondary resistance,[10],"delayed cell growth for the first two weeks, but the cells continued to grow quickly after that"
same,"induction of replication stress marker, phosphorylation at serine positions 317 and 345 of CHK1",[9],induced the replication stress marker
NC(=O)NO [hydroxyurea],"induction of replication stress marker, phosphorylation at serine positions 317 and 345 of CHK1",[9],induced the replication stress marker
same,ecDNA copy number,"[9]; ecDNA+ (Colo320 DM) cells, vs vehicle treated",markedly reduced
CN(Cc1cnc2nc(N)nc(N)c2n1)c1ccc(C(=O)N[C@@H](CCC(=O)O)C(=O)O)cc1 [methotrexate],"cell growth (cell confluence), agent alone",HeLa cells [3],"initially resulted in little to no cell growth, but after two weeks in culture, the cells began to develop resistance and cell growth resumed"
COc1cccc(OCCCN)c1-c1cc(Nc2cnc(C#N)cn2)n[nH]1 [prexasertib],difference in replication fork speed between treated ecDNA+ and ecDNA− cells,[11],−0.1 kb/min

# — US11642345B2, “Replication stress pathway agent compositions and methods for treating cancer” (Boundless Bio, Inc., priority 2020, dated 2023)
